Measured values as given in patent publication US12227520B2 (priority 2019, dated 2025).
Where two headings read alike, the source gives them in different places.

Tests used:
pLai RLuc reporter virus = assay: microbe, parasite or virus in culture; assay type: cell-based, HIV; details: Human immunodeficiency virus 1, 72 h
Protocol: To quantify the amount of protein binding to human serum, compounds were serially diluted (1:3) in DMSO and acoustically transferred onto 384-well assay plates via a Labcyte ECHO robot. Each plate contained up to 8 test compounds, including negative and positive controls, (DMSO, 5 μM AZT respectively). Assay plates were prepared in duplicate, and tested in either CCM (cell culture media) or HS/CCM (human serum/cell culture media). MT-4 cells were first pre-infected with pLai RLuc reporter virus for 2 h at 37° C., then further diluted in either CCM (RPMI media, 10% FBS, 1% P/S) or HS/CCM (RPMI media, 10% FBS, 50% HS, 1% P/S), and subsequently added to each plate using a Biotek Micro Flow dispenser. After a 72-h incubation in a humidified and temperature controlled incubator (37° C.), Renilla Glo (Promega) was added to all assay plates and chemiluminescence read using an Envision plate-reader. […] To determine the amount of protein binding, EC50 fold shifts (or EC50 shifts) were calculated by dividing EC50 (HS/CCM)/EC50 (CCM).

[1] = Cytotoxicity assay in MT-4 cells; assay type: cell-based, human; details: human, uninfected MT-4 cells, 5 days incubation; read-out: CC50
In short: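 Infected MT-4 cells (HIV-1 IIIB, fresh 1:250 dilution of concentrated stock) or mock-infected cells exposed to compounds for 5 days at 37 °C. Viability by CellTiter-Glo luminescence; 5 μM AZT positive control, no-drug negative control. Uninfected cells used for cytotoxicity, with 10 μM puromycin as base-level cytotoxicity control.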

HIV-1 (IIIB) = assay: Antiviral assay in MT-4 cells (HIV MT-4 antiviral assay); assay type: cell-based; details: HIV-1 (IIIB) in MT-4 cells, 5 days incubation, read-out: EC50
In short: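 MT-4 cells infected with HIV-1 IIIB (1:250 diluted stock) and exposed to 1:3 serially diluted compound in RPMI with 10% FBS. Viability read by CellTiter-Glo luminescence after 5 days at 37° C; mock-infected cells and 5 μM AZT as controls.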

[2] = read-out: Antiviral Serum Shift RLuc 50% HS, HS/CCM (RPMI media, 10% FBS, 50% HS, 1% P/S), 72-h incubation
[3] = read-out: Antiviral Serum Shift RLuc CCM, CCM (RPMI media, 10% FBS, 1% P/S), 72-h incubation
[4] = Human immunodeficiency virus 1, IIIB, MT4, 120 h

Row | Structure (SMILES) | EC50 (pLai RLuc reporter virus; [2]) | EC50 (pLai RLuc reporter virus; [3]) | CC50 at 5 days [1] | EC50 (HIV-1 (IIIB); [4]) | EC50 (HIV-1 (IIIB))
1 | O=C(NCc1c(F)cc(F)cc1F)c1cn2c(c(O)c1=O)C(=O)N1CCCC(F)(F)[C@@H]2C1 (single isomer, unassigned) [Example 10-1] | 1140 nM | 1.02 nM | 37.1 µM | 3.2 nM | –
2 | O=C(NCc1c(F)cc(F)cc1F)c1cn2c(c(O)c1=O)C(=O)N1CCCC(F)(F)[C@H]2C1 (single isomer, unassigned) [Example 10-2] | 5.04 nM | 0.27 nM | 16.1 µM | 1 nM | –
3 | O=C(NCc1ccc(F)cc1F)c1cn2c(c(O)c1=O)C(=O)N1CCCC[C@@H]2C1 (single isomer, unassigned) [Example 25-1] | 36.6 nM | 0.42 nM | 11.5 µM | 1.3 nM | –
4 | O=C(NCc1ccc(F)cc1F)c1cn2c(c(O)c1=O)C(=O)N1CCCC[C@H]2C1 (single isomer, unassigned) [Example 25-2] | 1.14 nM | 0.285 nM | 10.8 µM | 1.46 nM | –
5 | O=C(NCc1c(F)cc(F)cc1F)c1cn2c(c(O)c1=O)C(=O)N1CC2CCc2ccccc21 (single isomer, unassigned) [Example 38-1] | 360 nM | 2.64 nM | 11 µM | – | 16.3 nM
6 | O=C(NCc1ccc(F)cc1F)c1cn2c(c(O)c1=O)C(=O)N1CC3CC3CC2C1 (single isomer, unassigned) [Example 42-1, N-(2,4-difluorobenzyl)-5-hydroxy-4,6-dioxo-1,1a,2,4,6,10,11,11a-octahydro-3,10-methanocyclopropa[f]pyrido[1,2-a][1,4]diazonine-7-carboxamide] | 1.34 nM | 0.28 nM | 7.49 µM | 1.6 nM | –
7 | O=C(NCc1ccc(F)cc1F)c1cn2c(c(O)c1=O)C(=O)N1C[C@@H](F)CC[C@H]2C1 (single isomer, unassigned) [Example 53-2] | 2.27 nM | 1.58 nM | 28.4 µM | 6.2 nM | –
8 | O=C(NCc1ccc(F)cc1F)c1cn2c(c(O)c1=O)C(=O)N1C[C@@H](F)CC[C@@H]2C1 (single isomer, unassigned) [Example 53-3] | 75.2 nM | 0.223 nM | 11.2 µM | 1.94 nM | –
9 | C[C@]1(F)CCCN2C[C@@H]1n1cc(C(=O)NCc3ccc(F)cc3F)c(=O)c(O)c1C2=O (single isomer, unassigned) [Example 60-2] | 102 nM | 0.328 nM | 14 µM | 1.97 nM | –
10 | O=C(NCc1c(F)cc(F)cc1F)c1cn2c(c(O)c1=O)C(=O)N1CCc3ccccc3[C@H]2C1 (single isomer, unassigned) [Example 63-1] | 2.16 nM | 0.461 nM | 13.8 µM | 1.7 nM | –
11 | O=C(NCc1c(F)cc(F)cc1F)c1cn2c(c(O)c1=O)C(=O)N1CCC[C@H](Cl)[C@H]2C1 (single isomer, unassigned) [Example 72-1] | 5.36 nM | 0.281 nM | 9.99 µM | 1.57 nM | –
12 | O=C(NCc1c(F)cc(F)cc1F)c1cn2c(c(O)c1=O)C(=O)N1CCC[C@@H](Cl)[C@H]2C1 (single isomer, unassigned) [Example 72-2] | 34 nM | 0.267 nM | 12.1 µM | 4.27 nM | –
13 | O=C(NCc1c(F)cc(F)cc1F)c1cn2c(c(O)c1=O)C(=O)N1CCC=C(F)[C@@H]2C1 (single isomer, unassigned) [Example 75-1] | 298 nM | 0.595 nM | 15.1 µM | 3.76 nM | –
